Here are results for 42 compounds from patent US20260306640A1, “TECHNOLOGIES TARGETING CELL STATES” (Auron Therapeutics, Inc., priority 2023, published 2026).

Molecules are shown by their SMILES.

Chain of KAT2A (Q92830 whole entry): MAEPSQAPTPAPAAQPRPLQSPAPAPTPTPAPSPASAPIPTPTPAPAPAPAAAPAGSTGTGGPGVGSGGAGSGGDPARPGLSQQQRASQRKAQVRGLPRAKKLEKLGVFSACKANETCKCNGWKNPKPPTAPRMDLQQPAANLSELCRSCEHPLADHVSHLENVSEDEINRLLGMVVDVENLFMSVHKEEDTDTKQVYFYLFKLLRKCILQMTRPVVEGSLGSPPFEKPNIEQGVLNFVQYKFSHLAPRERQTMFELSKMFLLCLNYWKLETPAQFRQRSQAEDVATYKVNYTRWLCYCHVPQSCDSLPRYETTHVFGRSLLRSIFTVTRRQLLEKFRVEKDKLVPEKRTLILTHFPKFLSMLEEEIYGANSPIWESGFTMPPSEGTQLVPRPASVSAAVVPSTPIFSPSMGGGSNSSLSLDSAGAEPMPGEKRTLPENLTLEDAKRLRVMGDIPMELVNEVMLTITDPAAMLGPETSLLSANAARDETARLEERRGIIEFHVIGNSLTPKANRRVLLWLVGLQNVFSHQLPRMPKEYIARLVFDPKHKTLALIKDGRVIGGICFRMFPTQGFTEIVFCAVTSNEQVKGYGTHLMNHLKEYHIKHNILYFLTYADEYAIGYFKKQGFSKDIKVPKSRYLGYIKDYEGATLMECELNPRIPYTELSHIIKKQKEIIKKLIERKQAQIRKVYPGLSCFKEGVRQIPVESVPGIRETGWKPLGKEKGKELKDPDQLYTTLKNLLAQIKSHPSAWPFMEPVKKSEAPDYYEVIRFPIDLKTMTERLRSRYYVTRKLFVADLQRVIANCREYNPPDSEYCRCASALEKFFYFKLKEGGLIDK

The experiment has as its target KAT2A (Homo sapiens, UniProt Q92830). The experiment is described as follows: KAT2A degradation, Western Blot (Jess), MOLM-13 cells. More on the design: degrader, Western blot. Format: cell-based. To be noted: MOLM-13 cells, KAT2A, 24 h, Western Blot, vs DMSO; read-out: KAT2A MOLM-13 DC50. As for the experimental part: MOLM-13 cells or NCI-H1048 cells were used for Western Blot analysis of KAT2A degradation. KAT2B degradation can be measured in a similar manner with NCI-H1048 cells.
MOLM-13 cells were maintained at 37° C. in 5% CO2 and 90% humidity in RPMI 1640 supplemented with 20% fetal bovine serum (FBS) and 1× penicillin/streptomycin. Cells were plated in full media at 1-2 million cells/2 mL in a 6-well tissue culture treated plate with or without compounds for 24 h at 37° C. in 5% CO2.
MOLM-13 cells or NCI-H1048 cells were washed with PBS, then lysed with RIPA buffer containing 1×protease and phosphatase inhibitors (SantaCruz Biotechnologies Cat #sc-24948A). Protein was isolated by centrifugation at 12,000×g for 10 minutes at 4° C. and supernatant was collected. Protein was quantified via Bradford assay. Samples were diluted to 4 μg lysate in 16 μL RIPA buffer and then 4 μL of Jess Sample Buffer. Samples were heated at 95° C. for 5 minutes. Samples were loaded onto 12-230 kDa Jess™ Separation Module, 8×25 capillary cartridges (SM-W004, Biotechne). Antibodies loaded were: Primary antibody for KAT2A (GCN5L2 (C26A10) Rabbit mAb (3305, CST)) and for KAT2B (PCAF (C14G9)) Rabbit mAb (3378, CST) at 1:1000 and Anti-Rabbit Detection Module for Jess™ (Cat No #DM-001, Biotechne). Signal was detected by chemiluminescence.
DC50 values were determined from percent reduction of protein as compared to the DMSO control.
The DC50 is the concentration at which degradation of the target reaches its halfway point. Consider `CN1C[C@H](Nc2cnn(C)c(=O)c2Br)C[C@H](c2ccc(C(=O)N(C)C3CCN(c4cccc5c4C(=O)N(C4CCC(=O)NC4=O)C5=O)CC3)cc2)C1` (stereo partly drawn) [Compound 13], for which the DC50 lay in the range of 1 to 30 nM.

Regarding `CN1C[C@H](Nc2cnn(C)c(=O)c2Br)C[C@H](c2ccc(C(=O)N3CCN(c4cccc5c4C(=O)N(C4CCC(=O)NC4=O)C5=O)CC3)cc2)C1` (stereo partly drawn) [Compound 14], the 50% degradation concentration (DC50) was less than 1 nM. For `CN1C[C@H](Nc2cnn(C)c(=O)c2Br)C[C@H](c2ccc(C(=O)NC3CCN(c4cccc5c4C(=O)N(C4CCC(=O)NC4=O)C5=O)CC3)cc2)C1` (stereo partly drawn) [Compound 15], the DC50 lay within 1 to 30 nM. Regarding `CN1C[C@H](Nc2cnn(C)c(=O)c2Br)C[C@H](c2ccc(C(=O)N3CCC(Oc4cccc5c4C(=O)N(C4CCC(=O)NC4=O)C5=O)CC3)cc2)C1` (stereo partly drawn) [Compound 19], the DC50 lay within 1 to 30 nM. As to `CN1C[C@H](Nc2cnn(C)c(=O)c2Br)C[C@H](c2ccc(C(=O)N3CCN(Cc4ccc5c(c4)C(=O)N(C4CCC(=O)NC4=O)C5=O)CC3)cc2)C1` (stereo partly drawn) [Compound 25], the DC50 was less than 1 nM.

As for `CN1C[C@H](Nc2cnn(C)c(=O)c2Br)C[C@H](c2ccc(C(=O)N(C)c3cccc(Oc4cccc5c4C(=O)N(C4CCC(=O)NC4)C5=O)c3)cc2)C1` (stereo partly drawn) [Compound 26], the DC50 lay in the range of 1 to 30 nM.

For `CN1C[C@H](Nc2cnn(C)c(=O)c2Br)C[C@H](c2ccc(C(=O)N3CCN(c4cccc5c4C(=O)N(C4CCC(=O)NC4=O)C5=O)CC3)cc2)C1` (stereo partly drawn) [Compound 27], the DC50 is less than 1 nM. `CN1C[C@H](Nc2cnn(C)c(=O)c2Br)C[C@H](c2ccc(C(=O)N3CC4(C3)CN(c3cccc5c3C(=O)N(C3CCC(=O)NC3=O)C5=O)C4)cc2)C1` (stereo partly drawn) [Compound 29]: the DC50 was less than 1 nM. `CN1C[C@H](Nc2cnn(C)c(=O)c2Br)C[C@H](c2ccc(C(=O)N3CC(Oc4ccc5c(c4)C(=O)N(C4CCC(=O)NC4=O)C5=O)C3)cc2)C1` (stereo partly drawn) [Compound 30]: the half-maximal degradation concentration (DC50) fell in the range of 1 to 30 nM. For `CN1C[C@H](Nc2cnn(C)c(=O)c2Br)C[C@H](c2ccc(C(=O)OCC3CCN(c4cccc5c4C(=O)N(C4CCC(=O)NC4=O)C5=O)CC3)cc2)C1` (stereo partly drawn) [Compound 32], the DC50 lay within 1 to 30 nM. In the case of `CN1C[C@H](Nc2cnn(C)c(=O)c2Br)C[C@H](c2ccc(C(=O)N(C)Cc3ccc(Oc4cccc5c4C(=O)N(C4CCC(=O)NC4=O)C5=O)cc3)cc2)C1` (stereo partly drawn) [Compound 33] it was less than 1 nM. Turning to `CN1C[C@H](Nc2cnn(C)c(=O)c2Br)C[C@H](c2ccc(C(=O)N(C)c3cccc(Oc4ccc5c(c4)C(=O)N(C4CCC(=O)NC4=O)C5=O)c3)cc2)C1` (stereo partly drawn) [Compound 34], the half-maximal degradation concentration (DC50) is 1 to 30 nM. Regarding `CN1C[C@H](Nc2cnn(C)c(=O)c2Br)C[C@H](c2ccc(CNCC3CCC(COc4cccc5c4C(=O)N(C4CCC(=O)NC4=O)C5=O)CC3)cc2)C1` (stereo partly drawn) [Compound 35], the DC50 was less than 1 nM. `CN1C[C@H](Nc2cnn(C)c(=O)c2Br)C[C@H](c2ccc(CN3CCC(Oc4cccc5c4C(=O)N(C4CCC(=O)NC4=O)C5=O)CC3)cc2)C1` (stereo partly drawn) [Compound 36]: the DC50 fell in the range of 1 to 30 nM. Take `CN1C[C@H](Nc2cnn(C)c(=O)c2Br)C[C@H](c2ccc(CN3CC4(C3)CN(c3ccc5c(c3)CN(C3CCC(=O)NC3=O)C5=O)C4)cc2)C1` (stereo partly drawn) [Compound 37]: the DC50 is less than 1 nM. Take `CN1C[C@H](Nc2cnn(C)c(=O)c2Br)C[C@H](c2ccc(COc3cccc4c3C(=O)N(C3CCC(=O)NC3=O)C4=O)cc2)C1` (stereo partly drawn) [Compound 38]: the DC50 lay in the range of 1 to 30 nM. In the case of `CN1C[C@H](Nc2cnn(C)c(=O)c2Br)C[C@H](c2ccc(C(=O)NCCCCCCOc3cccc4c3C(=O)N(C3CCC(=O)NC3=O)C4=O)cc2)C1` (stereo partly drawn) [Compound 41], the 50% degradation concentration (DC50) was less than 1 nM. Turning to `CN1C[C@H](Nc2cnn(C)c(=O)c2Br)C[C@H](c2ccc(C(=O)NCCCCCCCCOc3cccc4c3C(=O)N(C3CCC(=O)NC3=O)C4=O)cc2)C1` (stereo partly drawn) [Compound 42], the DC50 is 1 to 30 nM. Then `CN1C[C@H](Nc2cnn(C)c(=O)c2Br)C[C@H](c2ccc(C(=O)NCCOCCn3cc(COCCOc4cccc5c4C(=O)N(C4CCC(=O)NC4=O)C5=O)nn3)cc2)C1` (stereo partly drawn) [Compound 43], with greater than 30 nM; and `CN1C[C@H](Nc2cnn(C)c(=O)c2Br)C[C@H](c2ccc(C(=O)N(C)CCOc3cccc4c3C(=O)N(C3CCC(=O)NC3=O)C4=O)cc2)C1` (stereo partly drawn) [Compound 44], with 1 to 30 nM. In the case of `CN1C[C@H](Nc2cnn(C)c(=O)c2Br)C[C@H](c2ccc(C(=O)N3CCC(COc4cccc5c4C(=O)N(C4CCC(=O)NC4=O)C5=O)CC3)cc2)C1` (stereo partly drawn) [Compound 45], the DC50 was less than 1 nM. On to `CN1C[C@H](Nc2cnn(C)c(=O)c2Cl)C[C@H](c2ccc(C(=O)N3CCN(Cc4ccc(C(=O)Nc5cccc6c5C(=O)N(C5CCC(=O)NC5=O)C6=O)cc4)CC3)cc2)C1` (stereo partly drawn) [Compound 46], for which the DC50 was in the range of 1 to 30 nM. As to `CN1C[C@H](Nc2nn(C)c(=O)c3cccnc23)C[C@H](c2ccc(C(=O)N3CCN(Cc4ccc(C(=O)Nc5cccc6c5C(=O)N(C5CCC(=O)NC5=O)C6=O)cc4)CC3)cc2)C1` (stereo partly drawn) [Compound 47], the DC50 is greater than 30 nM. For `CN(Cc1ccc(Oc2cccc3c2C(=O)N(C2CCC(=O)NC2=O)C3=O)cc1)Cc1ccc([C@H]2C[C@@H](Nc3cnn(C)c(=O)c3Br)CN(C)C2)cc1` (stereo partly drawn) [Compound 48], the DC50 is less than 1 nM. `CN1C[C@H](Nc2cnn(C)c(=O)c2Br)C[C@H](c2ccc(C(=O)N3CCN(Cc4ccc(Oc5cccc6c5C(=O)N(C5CCC(=O)NC5=O)C6=O)cc4)CC3)cc2)C1` (stereo partly drawn) [Compound 49]: the DC50 is less than 1 nM. In the case of `CN1C[C@H](Nc2cnn(C)c(=O)c2Br)C[C@H](c2ccc(CN3CCN(Cc4ccc(Oc5cccc6c5C(=O)N(C5CCC(=O)NC5=O)C6=O)cc4)CC3)cc2)C1` (stereo partly drawn) [Compound 50] it was less than 1 nM; in that of `CN1C[C@H](Nc2cnn(C)c(=O)c2Br)C[C@H](c2ccc(CN3CC4(C3)CN(c3cccc5c3C(=O)N(C3CCC(=O)NC3=O)C5=O)C4)cc2)C1` (stereo partly drawn) [Compound 51], greater than 30 nM.

As for `CN1C[C@H](Nc2cnn(C)c(=O)c2Br)C[C@H](c2ccc(C(=O)N3CCN(Cc4cccc5c4C(=O)N(C4CCC(=O)NC4=O)C5=O)CC3)cc2)C1` (stereo partly drawn) [Compound 52], the DC50 was less than 1 nM.

`CN1C[C@H](Nc2cnn(C)c(=O)c2Br)C[C@H](c2ccc(CN(C)c3ccc(Oc4cccc5c4C(=O)N(C4CCC(=O)NC4=O)C5=O)cc3)cc2)C1` (stereo partly drawn) [Compound 53]: the DC50 was 1 to 30 nM. In the case of `CN1C[C@H](Nc2cnn(C)c(=O)c2Br)C[C@H](c2ccc(C(=O)N3CCC(C#CCOc4ccc5c(c4)C(=O)N(C4CCC(=O)NC4=O)C5=O)CC3)cc2)C1` (stereo partly drawn) [Compound 54], the DC50 was less than 1 nM. On to `CN1C[C@H](Nc2cnn(C)c(=O)c2Br)C[C@H](c2ccc(C(=O)N(C)Cc3ccc(COc4cccc5c4C(=O)N(C4CCC(=O)NC4=O)C5=O)cc3)cc2)C1` (stereo partly drawn) [Compound 55], for which the DC50 was less than 1 nM. In the case of `CN1C[C@H](Nc2nn(C)c(=O)n(C)c2=O)C[C@H](c2ccc(C(=O)N3CCN(Cc4ccc(C(=O)Nc5cccc6c5C(=O)N(C5CCC(=O)NC5=O)C6=O)cc4)CC3)cc2)C1` (stereo partly drawn) [Compound 56] it was greater than 30 nM; in that of `CN1C[C@H](Nc2cnn(C)c(=O)c2Br)C[C@H](c2ccc(C(=O)N3CCN(Cc4cccc(C(=O)Nc5cccc6c5C(=O)N(C5CCC(=O)NC5=O)C6=O)c4)CC3)cc2)C1` (stereo partly drawn) [Compound 57], 1 to 30 nM.

As for `CN1C[C@H](Nc2cnn(C)c(=O)c2Br)C[C@H](c2ccc(CN3CCN(Cc4cccc5c4C(=O)N(C4CCC(=O)NC4=O)C5=O)CC3)cc2)C1` (stereo partly drawn) [Compound 58], the DC50 fell in the range of 1 to 30 nM. In the case of `CN1C[C@H](Nc2cnn(C)c(=O)c2Br)C[C@H](c2ccc(C(=O)N3CC4(CN(Cc5cccc6c5C(=O)N(C5CCC(=O)NC5=O)C6=O)C4)C3)cc2)C1` (stereo partly drawn) [Compound 59] it was 1 to 30 nM; in that of `CN1C[C@H](Nc2cnn(C)c(=O)c2Br)C[C@H](c2ccc(C(=O)N3CC4(CN(Cc5ccc6c(c5)C(=O)N(C5CCC(=O)NC5=O)C6=O)C4)C3)cc2)C1` (stereo partly drawn) [Compound 60], 1 to 30 nM. Take `CN1C[C@H](Nc2cnn(C)c(=O)c2Br)C[C@H](c2ccc(C(=O)N3CCN(Cc4ccc(C(=O)Nc5ccc6c(c5)C(=O)N(C5CCC(=O)NC5=O)C6=O)cc4)CC3)cc2)C1` (stereo partly drawn) [Compound 61]: the DC50 fell in the range of 1 to 30 nM. Regarding `CN1C[C@H](Nc2cnn(C)c(=O)c2Br)C[C@H](c2ccc(C(=O)N3CC(Oc4cccc5c4C(=O)N(C4CCC(=O)NC4=O)C5=O)C3)cc2)C1` (stereo partly drawn) [Compound 62], the DC50 was in the range of 1 to 30 nM. Then `CN1C[C@H](Nc2cnn(C)c(=O)c2Br)C[C@H](c2ccc(C(=O)N3CCC(c4ccc5c(c4)CN(C4CCC(=O)NC4=O)C5=O)CC3)cc2)C1` (stereo partly drawn) [Compound 63], with less than 1 nM; and `CN1C[C@H](Nc2cnn(C)c(=O)c2Br)C[C@H](c2ccc(CN3CC(Oc4cccc5c4C(=O)N(C4CCC(=O)NC4=O)C5=O)C3)cc2)C1` (stereo partly drawn) [Compound 64], with 1 to 30 nM.

Take `CN1C[C@H](Nc2cnn(C)c(=O)c2Br)C[C@H](c2ccc(COc3ccc4c(c3)CN(C3CCC(=O)NC3=O)C4=O)cc2)C1` (stereo partly drawn) [Compound 65]: the DC50 is greater than 30 nM. `CN1C[C@H](Nc2cnn(C)c(=O)c2Br)C[C@H](c2ccc(CN3CCC(c4ccc5c(c4)CN(C4CCC(=O)NC4=O)C5=O)CC3)cc2)C1` (stereo partly drawn) [Compound 66]: the DC50 is less than 1 nM.
